Results taken from US11793782B2, “Therapeutic agents for neurodegenerative diseases” (priority 2017, dated 2023).

What was measured:
[1] = system: Mucolipidosis Type IIIA (MLIIIA) patient fibroblasts; experiment: Lysosomal volume via LysoTracker, MLIIIA fibroblasts; format: cell-based, human; settings: 1 mM, 6 days
[2] = system: ataxia telangiectasia patients; experiment: Case studies, ataxia telangiectasia patients (SARA, SCAFI, video-oculography); format: in vivo, human; settings: for 8MWT: baseline 8.95 sec; for PATA: baseline 14.5; for 9HPTND: baseline 71.2 sec; for 9HPTD: baseline 85.38 sec
Source text: For example, to evaluate overall neurological status, mDRS, a four-domain scale (ambulation, manipulation, language and swallowing), may be applied. Cerebellar function may be evaluated using SARA, an eight-item clinical rating scale (gait, stance, sitting, speech, fine motor function and taxis; range 0-40, where 0 is the best neurological status and 40 the worst), and SCAFI, comprising the 8-m-Walking-Time (8 MW; performed by having patients walking twice as quickly as possible from one line to another excluding turning), 9-Hole-Peg-Test (9HPT) and the number of “PATA” repetitions over 10 s. Subjective impairment and quality of life may be evaluated using the EQ-5D-5L questionnaire and VAS. To assess ocular motor function, 3-dimensional videooculography (EyeSeeCam) may be used to measure the peak velocity of saccades, gain of smooth pursuit, peak slow phase velocity of gaze-evoked nystagmus (gaze-holding function), peak slow phase velocity of optokinetic nystagmus, and gain of horizontal vestibulo-ocular reflex. To evaluate the cognitive state, WAIS-R or WISC-IV, and MoCA, assessing different cognitive domains, including attention and concentration, executive functions, memory, language, visuoconstructional skills, conceptual thinking, calculations, and orientation with a maximum of 30 points and a cut-off score of 26, may be used. The skilled person will know how to perform these and other such tests.
After one month of treatment, the patient was re-evaluated. […] Examination indicated a Scale for Assessment and Rating of Ataxia (SARA) score of 15.5/40. Results from the patient's Spinocerebellar Ataxia Functional Index (SCAFI) analysis were: • Mean 8-meters Walking Test (8 MW): 18.5 s • MW 9-Hole Pegboard Test Dominant (9HPTD) (right): 77.9 s • MW 9-Hole Pegboard Test Non-Dominant (9HPTND): 101.3 s • MW PATA Word Test: 13 • Visual analog scale (as evaluated by the patient): 85
After one month of treatment, the patient was re-evaluated. […] Examination indicated a Scale for Assessment and Rating of Ataxia (SARA) score of 23.5/40.
After slightly over 7 months of treatment, the patient was re-evaluated. […] Examination indicated a Scale for Assessment and Rating of Ataxia (SARA) score of 21.5/40.
After slightly over 1 month of treatment, the patient was re-evaluated. […] The patient also reported that drinking was easier and no longer needed a straw. […] Examination indicated a Scale for Assessment and Rating of Ataxia (SARA) score of 18.5/40.
After about 1 month of treatment, the patient was re-evaluated. […] On medication, they were able to walk with only holding the caregiver's hand.
The patient was evaluated after one month and six months of treatment, respectively. […] The patient, however, was suffering from anxiety, which would be expected to negatively influence the response.

MSA-P patients = experiment: Case studies, multiple system atrophy Parkinson type (MSA-P) patients; format: in vivo, human; settings: MSA-P Patient 1; 6 weeks later
[3] = ataxia telangiectasia Patient 1, after one month
[4] = ataxia telangiectasia Patient 1, after one month, Center
[5] = ataxia telangiectasia Patient 1, after one month, Down
[6] = ataxia telangiectasia Patient 1, after one month, Left
[7] = ataxia telangiectasia Patient 1, after one month, Right
[8] = ataxia telangiectasia Patient 1, after one month, Up
[9] = ataxia telangiectasia Patient 2, after one month
[10] = ataxia telangiectasia Patient 2, after one month, Center
[11] = ataxia telangiectasia Patient 2, after one month, Down
[12] = ataxia telangiectasia Patient 2, after one month, Left
[13] = ataxia telangiectasia Patient 2, after one month, Right
[14] = ataxia telangiectasia Patient 2, after one month, Up
[15] = ataxia telangiectasia Patient 3, after slightly over 7 months
[16] = ataxia telangiectasia Patient 3, after slightly over 7 months, Center
[17] = ataxia telangiectasia Patient 3, after slightly over 7 months, Down
[18] = ataxia telangiectasia Patient 3, after slightly over 7 months, Left
[19] = ataxia telangiectasia Patient 3, after slightly over 7 months, Right
[20] = ataxia telangiectasia Patient 4, after slightly over 1 month
[21] = ataxia telangiectasia Patient 4, after slightly over 1 month, Center
[22] = ataxia telangiectasia Patient 4, after slightly over 1 month, Down
[23] = ataxia telangiectasia Patient 4, after slightly over 1 month, Left
[24] = ataxia telangiectasia Patient 4, after slightly over 1 month, Right
[25] = ataxia telangiectasia Patient 5, after about 1 month
[26] = ataxia telangiectasia Patient 5, after about 1 month, Center
[27] = ataxia telangiectasia Patient 5, after about 1 month, Down
[28] = ataxia telangiectasia Patient 5, after about 1 month, Left
[29] = ataxia telangiectasia Patient 5, after about 1 month, Right
[30] = ataxia telangiectasia Patient 5, after about 1 month, Up
[31] = ataxia telangiectasia Patient 5, after almost 7 months
[32] = ataxia telangiectasia Patient 5, after slightly over a year
[33] = ataxia telangiectasia Patient 6, after one month
[34] = ataxia telangiectasia Patient 6, after six months

CC(=O)NC(CC(C)C)C(=O)O (racemic) [acetyl-DL-leucine]
LysoTracker fluorescence relative to untreated disease fibroblasts [1]: trend in reducing LysoTracker fluorescence
Caregivers' report [2, 3]: improvement of speech and gait
Video-oculography (summary) [2, 3]: significant improvement of fixation stability and decrease of intensity of downbeat-nystagmus
Slow phase velocity of the gaze-holding nystagmus, Horizontal [2, 4]: 0.4
Slow phase velocity of the gaze-holding nystagmus, Vertical [2, 4]: 4.77
Slow phase velocity of the gaze-holding nystagmus, Horizontal [2, 5]: −0.44
Slow phase velocity of the gaze-holding nystagmus, Vertical [2, 5]: 5.29
Slow phase velocity of the gaze-holding nystagmus, Horizontal [2, 6]: 8.2
Slow phase velocity of the gaze-holding nystagmus, Vertical [2, 6]: 8.85
Slow phase velocity of the gaze-holding nystagmus, Horizontal [2, 7]: −0.95
Slow phase velocity of the gaze-holding nystagmus, Vertical [2, 7]: 4.83
Slow phase velocity of the gaze-holding nystagmus, Horizontal [2, 8]: 0.72
Slow phase velocity of the gaze-holding nystagmus, Vertical [2, 8]: 2.67
PATA Word Test ([2]; ataxia telangiectasia Patient 1, after one month, before 12.5): 13
Mean 8-meters Walking Test (8 MW) ([2]; ataxia telangiectasia Patient 1, after one month, before 21.8 s): 18.5 s
9-Hole Pegboard Test Dominant (9HPTD) (right) ([2]; ataxia telangiectasia Patient 1, after one month, before 90.2 s): 77.9 s
Visual analog scale (as evaluated by the patient) ([2]; ataxia telangiectasia Patient 1, after one month, before 99): 85
9-Hole Pegboard Test Non-Dominant (9HPTND) ([2]; ataxia telangiectasia Patient 1, after one month, before 125.8 s): 101.3 s
Caregivers' report [2, 9]: improvement of fine motor function, hand tremor, and speech
Mean 8-meters Walking Test (8 MW) [2, 9]: not able to perform without support
Video-oculography (summary) [2, 9]: improvement of fixation stability and significant improvement of downbeat-nystagmus intensity
Slow phase velocity of the gaze-holding nystagmus, Horizontal [2, 10]: −1.45
Slow phase velocity of the gaze-holding nystagmus, Vertical [2, 10]: 5.6
Slow phase velocity of the gaze-holding nystagmus, Horizontal [2, 11]: −2.5
Slow phase velocity of the gaze-holding nystagmus, Vertical [2, 11]: 4.69
Slow phase velocity of the gaze-holding nystagmus, Horizontal [2, 12]: 3.58
Slow phase velocity of the gaze-holding nystagmus, Vertical [2, 12]: 7
Slow phase velocity of the gaze-holding nystagmus, Horizontal [2, 13]: −3.45
Slow phase velocity of the gaze-holding nystagmus, Vertical [2, 13]: 6.56
Slow phase velocity of the gaze-holding nystagmus, Horizontal [2, 14]: −0.51
Slow phase velocity of the gaze-holding nystagmus, Vertical [2, 14]: 3.15
PATA Word Test ([2]; ataxia telangiectasia Patient 2, after one month, before 13.5): 14
Visual analog scale (as evaluated by the patient) ([2]; ataxia telangiectasia Patient 2, after one month, before 45): 80
9-Hole Pegboard Test Non-Dominant (9HPTND) ([2]; ataxia telangiectasia Patient 2, after one month, before 299.2 s): 300 s
9-Hole Pegboard Test Dominant (9HPTD) (right) ([2]; ataxia telangiectasia Patient 2, after one month, before 300 s): 300 s
Caregivers' and patient's report [2, 15]: general improvement of well-being
Mean 8-meters Walking Test (8 MW) [2, 15]: not able to perform
Video-oculography (summary) [2, 15]: significant improvement of fixation stability and decrease of intensity of gaze-holding nystagmus at all positions
Slow phase velocity of the gaze-holding nystagmus, Horizontal [2, 16]: −0.1 °/s
Slow phase velocity of the gaze-holding nystagmus, Vertical [2, 16]: 0.4 °/s
Slow phase velocity of the gaze-holding nystagmus, Horizontal [2, 17]: −0.6 °/s
Slow phase velocity of the gaze-holding nystagmus, Vertical [2, 17]: 1.2 °/s
Slow phase velocity of the gaze-holding nystagmus, Horizontal [2, 18]: 1.7 °/s
Slow phase velocity of the gaze-holding nystagmus, Vertical [2, 18]: 0.1 °/s
Slow phase velocity of the gaze-holding nystagmus, Horizontal [2, 19]: −4.2 °/s
Slow phase velocity of the gaze-holding nystagmus, Vertical [2, 19]: 1.7 °/s
PATA Word Test ([2]; ataxia telangiectasia Patient 3, after slightly over 7 months, before 14): 10
Visual analog scale (as evaluated by the patient) ([2]; ataxia telangiectasia Patient 3, after slightly over 7 months, before 80): 80
9-Hole Pegboard Test Dominant (9HPTD) (right) ([2]; ataxia telangiectasia Patient 3, after slightly over 7 months, before 150 s): 124.5 s
9-Hole Pegboard Test Non-Dominant (9HPTND) ([2]; ataxia telangiectasia Patient 3, after slightly over 7 months, before 161.6 s): 147.5 s
Mean 8-meters Walking Test (8 MW) [2, 20]: not able to perform
Patient's and parent's report [2, 20]: improvement in handwriting
Video-oculography (summary) [2, 20]: general improvement of fixation stability and decrease of intensity of spontaneous and gaze-holding nystagmus at all positions
Slow phase velocity of the gaze-holding nystagmus, Horizontal [2, 21]: −0.2 °/s
Slow phase velocity of the gaze-holding nystagmus, Vertical [2, 21]: 4.8 °/s
Slow phase velocity of the gaze-holding nystagmus, Horizontal [2, 22]: −0.7 °/s
Slow phase velocity of the gaze-holding nystagmus, Vertical [2, 22]: −2.3 °/s
Slow phase velocity of the gaze-holding nystagmus, Horizontal [2, 23]: −0.8 °/s
Slow phase velocity of the gaze-holding nystagmus, Vertical [2, 23]: 1.9 °/s
Slow phase velocity of the gaze-holding nystagmus, Horizontal [2, 24]: −1 °/s
Slow phase velocity of the gaze-holding nystagmus, Vertical [2, 24]: 0.3 °/s
PATA Word Test ([2]; ataxia telangiectasia Patient 4, after slightly over 1 month, before 14): 15.5
9-Hole Pegboard Test Non-Dominant (9HPTND) ([2]; ataxia telangiectasia Patient 4, after slightly over 1 month, before 52.3 s): 101.7 s
Visual analog scale (as evaluated by the patient) ([2]; ataxia telangiectasia Patient 4, after slightly over 1 month, before 70): 70
9-Hole Pegboard Test Dominant (9HPTD) (right) ([2]; ataxia telangiectasia Patient 4, after slightly over 1 month, before 124.5 s): 93.5 s
Mother's report ([2]; ataxia telangiectasia Patient 5, 5 g/day, after about 1 month): significant improvement of stability of the gait
Mean 8-meters Walking Test (8 MW) [2, 25]: not able to walk without support
Weight gained [2, 25]: 1.5 kg
Slow-phase velocity (SPV) of fixation and gaze-holding nystagmus, Horizontal [2, 26]: 0.79 °/s
Slow-phase velocity (SPV) of fixation and gaze-holding nystagmus, Vertical [2, 26]: 3.54 °/s
Slow-phase velocity (SPV) of fixation and gaze-holding nystagmus, Horizontal [2, 27]: 0.62 °/s
Slow-phase velocity (SPV) of fixation and gaze-holding nystagmus, Vertical [2, 27]: 1.08 °/s
Slow-phase velocity (SPV) of fixation and gaze-holding nystagmus, Horizontal [2, 28]: 1.22 °/s
Slow-phase velocity (SPV) of fixation and gaze-holding nystagmus, Vertical [2, 28]: 2.53 °/s
Slow-phase velocity (SPV) of fixation and gaze-holding nystagmus, Horizontal [2, 29]: 1.17 °/s
Slow-phase velocity (SPV) of fixation and gaze-holding nystagmus, Vertical [2, 29]: 2.36 °/s
Slow-phase velocity (SPV) of fixation and gaze-holding nystagmus, Horizontal [2, 30]: 0.33 °/s
Slow-phase velocity (SPV) of fixation and gaze-holding nystagmus, Vertical [2, 30]: 1.71 °/s
PATA Word Test ([2]; ataxia telangiectasia Patient 5, after about 1 month, before 6): 7.5
Visual analog scale (as evaluated by the patient) ([2]; ataxia telangiectasia Patient 5, after about 1 month, before 90): 80
9-Hole Pegboard Test Dominant (9HPTD) (right) ([2]; ataxia telangiectasia Patient 5, after about 1 month, before 102.7 s): 103.6 s
9-Hole Pegboard Test Non-Dominant (9HPTND) ([2]; ataxia telangiectasia Patient 5, after about 1 month, before 116.8 s): 88.8 s
9-Hole Pegboard Test Dominant (9HPTD) (right) [2, 31]: 92.4 s
9-Hole Pegboard Test Non-Dominant (9HPTND) [2, 31]: 98.3 s
Further weight gained [2, 31]: 3 kg
Mother's report [2, 31]: significantly more stable gait
PATA Word Test [2, 31]: 11
Visual analog scale (as evaluated by the patient) [2, 31]: 100
Mean 8-meters Walking Test (8 MW) ([2]; ataxia telangiectasia Patient 5, after almost 7 months, holding of the hand): 15.3 s
9-Hole Pegboard Test Dominant (9HPTD) (right) [2, 32]: 95.6 s
9-Hole Pegboard Test Non-Dominant (9HPTND) [2, 32]: 127.6 s
Clinical observation [2, 32]: improved social interaction, activity, and agility
PATA Word Test [2, 32]: 14.5
Visual analog scale (as evaluated by the patient) [2, 32]: 95
Mean 8-meters Walking Test (8 MW) ([2]; ataxia telangiectasia Patient 5, after slightly over a year, able to walk by themself, parent held hand): 13.9 s
Adverse observation ([2]; ataxia telangiectasia Patient 5, after slightly over a year, suspected infantile migraine): repeatedly occuring frontal localized pain with vomiting in the morning
Clinical observation [2, 33]: increased fine motor skills with reduced hand tremor, improved postural stability and gait, increased enunciation, and increased self-confidence
8MWT [2, 33]: 8.45 s
PATA [2, 33]: 15.5
9HPTND [2, 33]: 70.39 s
9HPTD [2, 33]: 81.95 s
Clinical observation [2, 34]: stable general conditions, stable gait and stance, and improved handwriting
8MWT [2, 34]: 7.53 s
SARA ([2]; ataxia telangiectasia Patient 6, after six months, baseline 11/40): 11/40
PATA [2, 34]: 13
9HPTND [2, 34]: 80.32 s
9HPTD [2, 34]: 136.27 s
Symptoms after stopping medication (MSA-P patients): did not report deterioration of symptoms
